Test results published in patent publication US9227930B2, “Aminoindane derivatives, pharmaceutical compositions containing them, and their use in therapy” (ABBOTT LABORATORIES, priority 2010, dated 2016).
Counter-ions that a name gives are not always drawn.

Target: human GlyT1c transporter (Homo sapiens (Human), UniProt P48067)
Assay: Radioligand binding assay using recombinant CHO cell membranes expressing human GlyT1
Conditions: read-out: radioligand binding Kiapp
Method: 2. Radioligand binding assays using recombinant CHO cell membranes expressing human GlyT1:
Radioligand binding to human GlyT1c transporter-expressing membranes was determined as described in Mezler et al., Molecular Pharmacology 74:1705-1715, 2008.

Chain of human GlyT1c transporter (P48067 whole entry): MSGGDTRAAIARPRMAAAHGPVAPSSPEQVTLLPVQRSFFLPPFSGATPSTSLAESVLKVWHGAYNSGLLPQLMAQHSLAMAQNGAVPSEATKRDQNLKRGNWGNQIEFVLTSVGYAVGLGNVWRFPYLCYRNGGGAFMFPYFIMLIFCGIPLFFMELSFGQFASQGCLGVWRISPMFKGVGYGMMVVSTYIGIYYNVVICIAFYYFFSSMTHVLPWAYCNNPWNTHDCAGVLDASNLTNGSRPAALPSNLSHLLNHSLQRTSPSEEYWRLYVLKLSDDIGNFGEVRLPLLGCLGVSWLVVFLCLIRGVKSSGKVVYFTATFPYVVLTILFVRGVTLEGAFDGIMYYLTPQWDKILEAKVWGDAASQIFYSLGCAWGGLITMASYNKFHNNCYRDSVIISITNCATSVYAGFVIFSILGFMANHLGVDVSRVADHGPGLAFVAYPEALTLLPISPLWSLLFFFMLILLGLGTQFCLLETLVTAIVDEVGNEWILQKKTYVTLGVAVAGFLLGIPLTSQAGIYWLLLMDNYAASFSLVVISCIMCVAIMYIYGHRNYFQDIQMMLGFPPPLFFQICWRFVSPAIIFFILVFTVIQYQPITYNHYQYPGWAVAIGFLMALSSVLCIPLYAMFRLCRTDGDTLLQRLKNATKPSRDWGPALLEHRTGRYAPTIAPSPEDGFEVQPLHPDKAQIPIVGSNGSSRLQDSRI

Ki	Compound
≤ 100 nM	Cn1cnc(S(=O)(=O)NCCOc2ccc3c(c2)C(Cc2ccccc2)C(N)C3)c1 (stereo not drawn) [Example 197, N-{2-[(2-Amino-3-benzyl-2,3-dihydro-1H-inden-5-yl)oxy]ethyl}-1-methyl-1H-imidazole-4-sulfonamide hydrochloride]
≤ 100 nM	CC1CN(C2Cc3ccc(OCCNS(=O)(=O)c4cn(C)cn4)cc3C2Cc2ccccc2)C1 (stereo not drawn) [Example 204, N-(2-(3-Benzyl-2-(3-methylazetidin-1-yl)-2,3-dihydro-1H-inden-5-yloxy)ethyl)-1-methyl-1H-imidazole-4-sulfonamide]
≤ 10000 nM	Cn1ccnc1S(=O)(=O)NCCOc1ccc2c(c1)C(Cc1ccccc1)C(N)C2 (stereo not drawn) [Example 198, N-(2-(2-Amino-3-benzyl-2,3-dihydro-1H-inden-5-yloxy)ethyl)-1-methyl-1H-imidazole-2-sulfonamide hydrochloride]
≤ 100 nM	CN[C@@H]1Cc2cc(F)c(OCCNS(=O)(=O)c3cn(C)cn3)cc2[C@@H]1Cc1ccccc1 (relative stereo) [Example 200, cis-N-(2-(3-Benzyl-6-fluoro-2-(methylamino)-2,3-dihydro-1H-inden-5-yloxy)ethyl)-1-methyl-1H-imidazole-4-sulfonamide]
≤ 10 nM	CNC1Cc2ccc(OCCNS(=O)(=O)c3cn(C)cn3)cc2C1Cc1ccccc1 (stereo not drawn) [Example 199, N-(2-(3-Benzyl-2-(methylamino)-2,3-dihydro-1H-inden-5-yloxy)ethyl)-1-methyl-1H-imidazole-4-sulfonamide]
≤ 100 nM	Cn1cnc(S(=O)(=O)NCCOc2ccc3c(c2)C(Cc2ccccc2)C(N2CC(C)(C)C2)C3)c1 (stereo not drawn) [Example 205, N-(2-{[3-Benzyl-2-(3,3-dimethylazetidin-1-yl)-2,3-dihydro-1H-inden-5-yl]oxy}ethyl)-1-methyl-1H-imidazole-4-sulfonamide]
≤ 1000 nM	CN(CCOc1cc2c(cc1F)CC(N1CC(C)(O)C1)C2Cc1ccccc1)S(=O)(=O)c1cn(C)cn1 (stereo not drawn) [Example 207, N-(2-(3-Benzyl-6-fluoro-2-(3-hydroxy-3-methylazetidin-1-yl)-2,3-dihydro-1H-inden-5-yloxy)ethyl)-N,1-dimethyl-1H-imidazole-4-sulfonamide]
≤ 10000 nM	CCOC(=O)NC1Cc2ccc(OCCNS(=O)(=O)c3nccn3C)cc2C1Cc1ccccc1 (stereo not drawn) [Example 196, Ethyl 1-benzyl-6-(2-(1-methyl-1H-imidazole-2-sulfonamido)ethoxy)-2,3-dihydro-1H-inden-2-ylcarbamate]
≤ 10 nM	CN[C@@H]1Cc2cc(F)c(CNS(=O)(=O)c3cn(C)cn3)cc2[C@H]1Cc1ccccc1 (relative stereo) [Example 209b, trans-N-{[3-benzyl-6-fluoro-2-(methylamino)-2,3-dihydro-1H-inden-5-yl]methyl}-1-methyl-1H-imidazole-4-sulfonamide]
≤ 10 nM	Cn1cnc(S(=O)(=O)NCCOc2ccc3c(c2)C(Cc2ccccc2)C(N2CCC2)C3)c1 (stereo not drawn) [Example 202, N-(2-(2-(Azetidin-1-yl)-3-benzyl-2,3-dihydro-1H-inden-5-yloxy)ethyl)-1-methyl-1H-imidazole-4-sulfonamide]
≤ 10 nM	CN[C@@H]1Cc2cc(F)c(CNS(=O)(=O)c3cn(C)cn3)cc2[C@@H]1Cc1ccccc1 (relative stereo) [Example 209a, cis-N-{[3-Benzyl-6-fluoro-2-(methylamino)-2,3-dihydro-1H-inden-5-yl]methyl}-1-methyl-1H-imidazole-4-sulfonamide]
≤ 100 nM	Cn1cnc(S(=O)(=O)NCCOc2cc3c(cc2F)C[C@@H](N2CCC2)[C@H]3Cc2ccccc2)c1 (relative stereo) [Example 201, cis-N-(2-{[2-(Azetidin-1-yl)-3-benzyl-6-fluoro-2,3-dihydro-1H-inden-5-yl]oxy}ethyl)-1-methyl-1H-imidazole-4-sulfonamide]
≤ 1000 nM	CCOC(=O)NC1Cc2ccc(OCCNS(=O)(=O)c3cn(C)cn3)cc2C1Cc1ccccc1 (stereo not drawn) [Example 195, Ethyl 1-benzyl-6-(2-(1-methyl-1H-imidazole-4-sulfonamido)ethoxy)-2,3-dihydro-1H-inden-2-ylcarbamate]
≤ 100 nM	CC1CN(C2Cc3cc(F)c(OCCNS(=O)(=O)c4cn(C)cn4)cc3C2Cc2ccccc2)C1 (stereo not drawn) [Example 203, N-(2-(3-Benzyl-6-fluoro-2-(3-methylazetidin-1-yl)-2,3-dihydro-1H-inden-5-yloxy)ethyl)-1-methyl-1H-imidazole-4-sulfonamide]
≤ 100 nM	Cn1cnc(S(=O)(=O)NCCOc2cc3c(cc2F)C[C@@H](N2CC(C)(O)C2)[C@H]3Cc2ccccc2)c1 (relative stereo) [Example 206, cis-N-(2-{[3-Benzyl-6-fluoro-2-(3-hydroxy-3-methylazetidin-1-yl)-2,3-dihydro-1H-inden-5-yl]oxy}ethyl)-1-methyl-1H-imidazole-4-sulfonamide]
